pKi: −log10 of the molar value.
Key:
human σ2/TMEM97 receptor = target: T1, human σ2/TMEM97 receptor (Homo sapiens, UniProt Q5BJF2); experiment: Binding assay to human σ2/TMEM97 receptor ([3H]-DTG, transfected HEK-293 membranes); conditions: class scale, read-out: Binding σ-2 Ki
T1 construct: expressed in transfected cells; host or cells: HEK-293
Summary of the method: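 Competition against 10 nM [3H]-DTG (Tris-HCl 50 mM, pH 8.0, 25 °C, 120 min) using 15 μg transfected HEK-293 membrane protein, with 10 μM haloperidol defining NSB. Bound radioactivity counted after filtration; results as single-point % inhibition (1 or 10 μM) or five-point Ki.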

human σ1 receptor = target: T2, human σ1 receptor (Homo sapiens, UniProt Q99720); experiment: Human σ1 receptor radioligand assay ([3H](+)-pentazocine, transfected HEK-293 membranes); conditions: class scale, read-out: Binding σ-1 Ki
T2 construct: expressed in transfected cells; host or cells: HEK-293
Summary of the method: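 Compounds were tested at a single 1 or 10 μM concentration (% inhibition) or at five concentrations to give Ki. They competed with 5 nM [3H](+)-pentazocine for transfected HEK-293 membranes (7 μg) in 50 mM Tris-HCl pH 8 at 37° C for 120 minutes. Nonspecific binding was set with 10 μM haloperidol, and a filtration scintillation read-out was used.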

T1 sequence (Q5BJF2 whole entry): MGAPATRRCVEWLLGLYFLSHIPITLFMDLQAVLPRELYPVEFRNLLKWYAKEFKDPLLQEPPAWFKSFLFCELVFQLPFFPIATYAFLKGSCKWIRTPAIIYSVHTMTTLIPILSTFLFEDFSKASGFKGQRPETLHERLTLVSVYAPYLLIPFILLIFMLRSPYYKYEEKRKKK
T2 sequence (Q99720 whole entry): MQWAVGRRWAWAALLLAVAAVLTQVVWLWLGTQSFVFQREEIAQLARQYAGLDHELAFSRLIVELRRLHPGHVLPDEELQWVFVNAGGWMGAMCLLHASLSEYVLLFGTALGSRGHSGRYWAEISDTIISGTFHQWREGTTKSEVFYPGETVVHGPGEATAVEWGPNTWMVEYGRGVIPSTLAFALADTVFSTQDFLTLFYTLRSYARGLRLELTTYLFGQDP

Row | SMILES | pKi (human σ2/TMEM97 receptor) | pKi (human σ1 receptor)
1 | Cc1cc(-c2nn(C)c(Cl)c2CN2CCC[C@H](NCCC(C)C)C2)no1 [Example 6, (S)-1-((5-Chloro-1-methyl-3-(5-methylisoxazol-3-yl)-1H-pyrazol-4-yl)methyl)-N-isopentylpiperidin-3-amine] | < 6.00 | 6.30 to 7.00
2 | CCn1nc(-c2cc(C)on2)c(C(=O)NCCC2CCN(CCC(C)(C)C)CC2)c1Cl [Example 158, 5-Chloro-N-(2-(1-(3,3-dimethylbutyl)piperidin-4-yl)ethyl)-1-ethyl-3-(5-methylisoxazol-3-yl)-1H-pyrazole-4-carboxamide] | > 7.00 | 6.30 to 7.00
3 | CC(C)CCNC1CCCCN(Cc2c(-c3nccn3C)nn(C)c2Cl)C1 (stereo not drawn) [Example 32, 1-((5-Chloro-1-methyl-3-(1-methyl-1H-imidazol-2-yl)-1H-pyrazol-4-yl)methyl)-N-isopentylazepan-3-amine] | 6.30 to 7.00 | < 6.00
4 | Cc1cc(-c2nn(C)c(Cl)c2CN2CC[C@@]3(CCN(CCC(C)(C)C)C3)C2)no1 [Example 70, (R)-3-(5-chloro-4-((7-(3,3-dimethylbutyl)-2,7-diazaspiro[4.4]nonan-2-yl)methyl)-1-methyl-1H-pyrazol-3-yl)-5-methylisoxazole] | > 7.00 | > 7.00
5 | Cn1nc(-c2cccc(O)n2)c(C(=O)N2CCC3(CCN(CCC(C)(C)C)CC3)CC2)c1Cl [Example 124, (5-Chloro-3-(6-hydroxypyridin-2-yl)-1-methyl-1H-pyrazol-4-yl)(9-(3,3-dimethylbutyl)-3,9-diazaspiro[5.5]undecan-3-yl)methanone] | 6.30 to 7.00 | < 6.00
6 | Cc1conc1-c1nn(C)c(Cl)c1C(=O)N1CCC2(CCN(CCC(C)(C)C)CC2)CC1 [Example 100, (5-Chloro-1-methyl-3-(4-methylisoxazol-3-yl)-1H-pyrazol-4-yl)(9-(3,3-dimethylbutyl)-3,9-diazaspiro[5.5]undecan-3-yl)methanone] | > 7.00 | 6.00 to 6.30

Results, then the compound that gave them:

Row | pKi (human σ2/TMEM97 receptor) | pKi (human σ1 receptor) | SMILES
7 | 6.30 to 7.00 | < 6.00 | Cc1cc(-c2nn(C)c(Cl)c2C(=O)N2CCC3(CCN(CC(=O)N4CCCCC4)CC3)CC2)no1 [Example 112, 2-(9-(5-Chloro-1-methyl-3-(5-methylisoxazol-3-yl)-1H-pyrazole-4-carbonyl)-3,9-diazaspiro[5.5]undecan-3-yl)-1-(piperidin-1-yl)ethanone]
8 | > 7.00 | < 6.00 | Cc1cc(-c2nn(C)c(Cl)c2C(=O)N2CCCC3(CCN(CC(C)(C)C)CC3)C2)no1 [Example 157, (5-Chloro-1-methyl-3-(5-methylisoxazol-3-yl)-1H-pyrazol-4-yl)(9-neopentyl-2,9-diazaspiro[5.5]undecan-2-yl)methanone]
9 | > 7.00 | 6.30 to 7.00 | COc1cccc(-c2nn(C)c(Cl)c2C(=O)N2CCC3(CCN(CCC(C)(C)C)CC3)CC2)n1 [Example 102, (5-Chloro-3-(6-methoxypyridin-2-yl)-1-methyl-1H-pyrazol-4-yl)(9-(3,3-dimethylbutyl)-3,9-diazaspiro[5.5]undecan-3-yl)methanone]
10 | < 6.00 | < 6.00 | Cc1cc(-c2nn(C)c(Cl)c2C(=O)N2CCC[C@@H](CNCCC(C)C)C2)no1 [Example 126, (S)-(5-Chloro-1-methyl-3-(5-methylisoxazol-3-yl)-1H-pyrazol-4-yl)(3-((isopentylamino)methyl)piperidin-1-yl)methanone]
11 | > 7.00 | > 7.00 | CCn1nc(-c2cccc(C(F)(F)F)n2)c(C(=O)NC2CCN(CCC(C)(C)C)CC2)c1Cl [Example 161, 5-Chloro-N-(1-(3,3-dimethylbutyl)piperidin-4-yl)-1-ethyl-3-(6-(trifluoromethyl)pyridin-2-yl)-1H-pyrazole-4-carboxamide]
12 | 6.30 to 7.00 | 6.00 to 6.30 | Cc1cc(-c2nn(C)c(Cl)c2C(=O)N2CCCCC(N(C)CCc3ccccc3)C2)no1 (stereo not drawn) [Example 110, (5-Chloro-1-methyl-3-(5-methylisoxazol-3-yl)-1H-pyrazol-4-yl)(3-(methyl(phenethyl)amino)azepan-1-yl)methanone]

Reference: US20240239781A1, “1H-PYRAZOLE DERIVATIVES AS SIGMA LIGANDS” (ACONDICIONAMIENTO TARRASENSE, priority 2021, published 2024)
